# Source: article PMC7143549, “Anticancer Activities of Meroterpenoids Isolated from the Brown Alga Cystoseira usneoides against the Human Colon Cancer Cells HT-29” (Foods, 2020)
# Tests used:
# HT-29 colon cancer cells [1] = test: Annexin V-FITC/PI flow cytometry apoptosis induction assay; format: cell-based, human; settings: 24 h; for necrosis (dead cells): 30 μg/mL
# Description: Quantitative assessment of apoptosis was performed by flow cytometry using an Annexin V-FITC Apoptosis Detection Kit. Briefly, 1 × 10^6 HT-29 cells were seeded per well in six-well plates and incubated for 24 h, followed by the addition of the AMTs dissolved in DMSO (final concentrations of 10, 20, and 30 µg/mL for compounds 1, 2, 5, 6, 7, and 8, and 30, 60, and 90 µg/mL for compounds 3 and 4, and less than 0.05% DMSO) and incubation for 24 h. Curcumin (final concentrations of 50 and 75 μM) was used as positive control. The cells were then washed, harvested with trypsin, and centrifuged at 1500 rpm (5 min, 25 °C). The pellet was resuspended in 195 µL of 1 × Annexin buffer and then stained with 5 μL of Annexin V-FITC and 10 μL of PI for 10 min at room temperature, in the dark. To this mixture 200 μL of 1 × Annexin buffer was added before analysis using a Cytomics FC500 flow cytometer (Beckman Coulter, Indianapolis, IN, USA). Following a gating strategy, flow cytometry plots of size (FS) and complexity (SS) of the HT-29 cells were previously established for the elaboration of a measurement protocol. The normal healthy cells, early apoptosis, late apoptosis, and necrotic populations were represented by annexin V-negative/PI-negative population, annexin V-positive/PI-negative, annexin V-positive/PI-positive and annexin-negative/PI-positive cells, respectively. A total of 10,000 cellular events in each sample were analyzed using DML program.
# HT-29 colon cancer cells [2] = test: Cell cycle analysis by flow cytometry (PI); format: cell-based, human; settings: 24 h; 30 μg/mL of 1, 2, 5, 6, 7, 8 and 90 μg/mL of 3 and 4 (Figure 4B)
# Description: HT-29 cells (1 × 10^6 cells/well) were seeded in six-well plates and incubated for 24 h, followed by treatment with AMTs dissolved in DMSO (final concentrations of 10, 20, and 30 µg/mL for compounds 1, 2, 5, 6, 7, and 8, and 30, 60, and 90 µg/mL for compounds 3 and 4, and always below 0.05% DMSO) and 24 h of additional incubation. Colchicine (final concentration of 0.2 μg/mL) was used as positive control. The cells were then washed, harvested with trypsin, and centrifuged at 1500 rpm (5 min, 25 °C). The resulting pellet was fixed with ice-cold 70% ethanol (1 mL/10^6 cells) and the samples were stored at −4°C overnight. After fixation, the cells were washed with PBS, stained with PBS containing 5 mg/mL of RNase A, and incubated for 48 h at 4 °C. Subsequently, 50 μL of 0.1 mg/mL of IP was added and incubated for 1 h at 4 °C. The relative DNA content per cell was analyzed using a Cytomics FC500 flow cytometer (Beckman Coulter, Indianapolis, IN, USA). The data acquisition was performed with the DML program and the analysis of the acquired data with the CXP Software (Beckman Coulter, Indianapolis, IN, USA).
# HT-29 cells = test: Wound migration assay; format: cell-based, human; settings: 24 h, wound-healing; for inhibition at 10 µg/mL: Homo sapiens, HT-29, read-out: inhibition of cell migration
# Description: For cell migration assay, HT-29 cells were seeded in six-well culture plates and allowed to grow to 80%–90% confluence for the experiment. After aspirating the medium, similar sized wounds were performed in the monolayer cells using a sterile micropipette tip. Wounded monolayer cells were washed three times with PBS to remove cell debris and then replaced with complete McCoy’s medium. HT-29 cells were treated with the AMTs (10 µg/mL for compounds 1, 2, 5, 6, 7, and 8, and 30 µg/mL for compounds 3 and 4) and incubated for 24h. For the image analysis of the effect of each treatment on cell migration, the wounded area was photographed immediately after scratching and after 24 h. The level of cell migration was determined using NIH Image software (Image J 1.44g, Wayne Rasband, USA) and then expressed as a percentage of wound closure area using the equation: Migration rate (%) = [(wound area at 0 h − wound area at 24 h)/wound area at 0 h] × 100%.
# [3] = tested on: normal human colonic epithelial cells CCD 841 CoN; test: Sulforhodamine B (SRB) cell viability assay, CCD 841 CoN; format: cell-based; settings: normal colon cells, 72 h of treatment, mean ± SE of three experiments, read-out: IC50 CCD841 CoN
# Description: Cell viability was quantified using the Sulforhodamine B assay described by Skehan et al.. Cells were plated with a density of 5 × 10^3 (HT-29) and 1 × 10^4 (CCD 841 CoN) cells/well and allowed to attach at 37 °C in an atmosphere with 5% CO2. After 24 h, the AMTs dissolved in DMSO were added to the cells (final concentrations of 10, 20, 30, and 50 µg/mL and less than 0.05% of DMSO) and the plates were incubated for 72 h. Then, the cells were fixed by adding 50 μL of TCA (50%) to each well and the plates were maintained for 1 h at 4 °C. The plates were washed five times with deionized water, air-dried, and stained for 30 min at room temperature with 100 μL of 0.4% (w/v) SRB prepared in 1% (v/v) acetic acid. The plates were rinsed quickly five times with 1% acetic acid to remove unbound dye, followed by air-drying. The bound dye was solubilized in 2 mM Tris base (100 μL/well) for 5 min. Optical densities were read on a microplate reader (Spectrophotometer LabsystemsMultiskan EX, λ 492 nm). Three independent assays were conducted, each one in duplicate. A standard curve was constructed for each experiment and used for converting the measured optical density values into numbers of viable cells/well. The inhibition rate was used to evaluate the cell viability and its algorithm was the following formula: ((ODcontrol − ODtreatment)/ODcontrol) × 100; OD, optical density. The OD492 for control cells was taken as 100% viability. The half maximal inhibitory concentration (IC50) was calculated. The selectivity index (SI) of each compound was calculated as IC50 of the compound against the CCD 841 CoN normal cell line/IC50 of the same compound against the HT-29 cancer cell line.
compound,measurement,setting,value
"COc1c(C)cc(O)cc1C/C=C(\C)CC(=O)/C=C(\C)CCCC(C)(O)C(=O)/C=C/C(C)(C)O (stereo not drawn) [Compound 2, 11-hydroxy-1′-O-methylamentadione]",early apoptotic cells,HT-29 colon cancer cells [1]; 30 μg/mL (Figure 3B),1.94%
same,late apoptotic cells,HT-29 colon cancer cells [1]; 30 μg/mL (Figure 3B),12.94%
same,viability at 30 µg/mL,"HT-29 colon cancer cells [1]; Homo sapiens, HT-29, 30 μg/mL (Figure 3B), read-out: viable cells",57.7%
same,"accumulation of cells at the G2/M phase (cell cycle arrest, words)",HT-29 colon cancer cells [2],significant
same,inhibition of cell migration,HT-29 cells; 10 μg/mL,no significant effects
same,IC50,[3],21.4 ± 2.5 µg/mL
"COc1c(C)cc(O)cc1/C=C/C(C)(O)CC(=O)/C=C(/C)CCCC(C)C(=O)/C=C/C(C)(C)O (stereo not drawn) [Compound 7, cystodione A]",induction of apoptosis or death of HT-29 cells,"HT-29 colon cancer cells [1]; 4 tested at 30-90 μg/mL, 7 at 10-30 μg/mL",did not induce neither apoptosis nor death
same,"accumulation of cells at the G2/M phase (cell cycle arrest, words)",HT-29 colon cancer cells [2],significant
same,inhibition at 10 µg/mL,HT-29 cells; 10 μg/mL,30.7%
same,IC50,[3],> 50 µg/mL
"COc1c(C)cc(O)cc1C/C=C(\C)CC(=O)/C=C(/C)CCCC(C)(O)C(=O)/C=C/C(C)(C)O (stereo not drawn) [Compound 1, usneoidone Z]",necrosis (dead cells),HT-29 colon cancer cells [1],31.22%
same,"accumulation of cells at the G2/M phase (cell cycle arrest, words)",HT-29 colon cancer cells [2],significant cell cycle arrest in the G2/M
same,inhibition at 10 µg/mL,HT-29 cells; 10 μg/mL,28.4%
same,IC50,[3],46.4 ± 3.87 µg/mL
"COc1c(C)cc(O)cc1C/C=C(\C)CC(=O)/C=C(\C)CCCC(C)=O [Compound 3, cystomexicone B]",early apoptotic cells (Annexin V+PI-),HT-29 colon cancer cells [1]; 90 μg/mL,4.47%
same,late apoptotic cells (Annexin V+PI+),HT-29 colon cancer cells [1]; 90 μg/mL,52.12%
same,total percentage of apoptotic cells,HT-29 colon cancer cells [1]; 90 μg/mL,56.6%
same,"accumulation of cells at the G2/M phase (cell cycle arrest, words)",HT-29 colon cancer cells [2],significant
same,inhibition of cell migration,"HT-29 cells; 30 μg/mL (methods, Figure 5B)",no significant effects
same,IC50,[3],> 50 µg/mL
"COc1c(C)cc(O)cc1/C=C/C(C)(O)CC(=O)/C=C(\C)CCCC(C)C(=O)/C=C/C(C)(C)O (stereo not drawn) [Compound 8, cystodione B]",necrosis (dead cells),HT-29 colon cancer cells [1],20.12%
same,"accumulation of cells at the G2/M phase (cell cycle arrest, words)",HT-29 colon cancer cells [2],not significant
same,inhibition at 10 µg/mL,HT-29 cells; 10 μg/mL,59.1%
same,IC50,[3],31.9 ± 7.51 µg/mL
